Measurements taken from US10597735B2, “Antibacterial and plasmid elimination agents” (priority 2006, dated 2020).
Converted amounts (≈) assume the structure as drawn. “Also recorded” adds a separate entry of the source. Like-named read-outs stand apart in the source and are kept apart here. Where a SMILES comes first, the peptide text is derived from it.

Key:
C. crescentus [1] = assay type: cell-based, Caulobacter crescentus
Protocol: Antibacterial activity: The peptides recovered from the selection were tested for antibacterial activity by incubating a 1:1,000 diluted saturated culture with the peptide overnight at room temperature. For each peptide a series of concentrations were tested. The mix was then plated, and the colonies were counted after a period incubation at 30° for C. crescentus or 37° C. for B. subtilis. For C. crescentus, PYE liquid media were incubated overnight at 30° C. at 250 rpm, and PYE plates were incubated for 3 days at 30° C. For B. subtilis, LB liquid media and plates were incubated overnight at 37° C. […]
Antibacterial activity of cyclic peptide inhibitors: Because ClpXP is essential in C. crescentus, we examined whether the inhibitory peptides have any effect when added exogenously to growing cultures. […] ClpXP is not essential in Bacillus subtilis, but mutants lacking ClpXP activity have growth and sporulation defects. […] No killing of E. coli or the related γ-proteobacteria Shigella flexneri and Vibrio cholera was observed. It remains to be determined if the selected cyclic peptides are effective against pathogenic bacterial that require the tmRNA-ClpXP pathway.

ClpXP [2] = biological target: T1, ClpXP (Escherichia coli, UniProt P0A6G7+P0A6H1); experiment: ClpXP degradation of λO protein (Example 1); assay type: biochemical, E. coli; conditions: concentrations near or 10-fold above the KI for GFP-tag
Protocol: The differing effects of SspB on inhibition indicate that inhibitors for two different steps in the ClpXP degradation pathway were obtained from the genetic screen. To confirm the different specificities of these two inhibitors, the effects on ClpXP degradation of a substrate unrelated to tmRNA tagged proteins was assayed. Because ClpXP can recognize at least 5 different protein sequences as substrate determinants, it has been proposed that there are several substrate binding sites on the protease. Inhibitors that block one site of interaction are expected to affect degradation of only the substrates that bind at that site. Conversely, inhibitors that block catalysis or obstruct a binding site required by all substrates should affect degradation of any ClpXP substrate.

ClpXP [3] = biological target: T1, ClpXP; experiment: biochemical; assay type: biochemical, E. coli; conditions: for mode of inhibition of GFP-tag degradation: SspB present; for inhibition of ClpXP proteolysis of GFP-tag in vitro: at the concentrations tested
Protocol: (§1) In vitro proteolysis assays: Proteolysis of GFP-tag was performed using a continuous fluorescence assay essentially as previously described (Levchenko et al. 2000, Science 289: 2354-2356). Briefly, loss of GFP fluorescence was monitored at 507 nm after excitation at 395 nm at 30° C. using a Hitachi F-2000 Fluorescence Spectrophotometer in buffer R (25 mM HEPES-KOH (pH 7.6), 5 mM MgCl2, 50 mM KCl, 0.032% NP-40, 10% glycerol, and an ATP regeneration system containing 4 mM ATP (pH 7), 16 mM creatine phosphate and 0.32 mg/ml creatine kinase). Typically, reactions contained […], 0.3 μM ClpP14, and equimolar concentrations (0.2 μM-2.0 μM) GFP-tag and SspB. Degradation of GFP-tag protein was confirmed by SDS-PAGE assays. To examine inhibition of GFP-tag proteolysis, peptides were incubated with ClpXP in reaction buffer for 5 min prior to the addition of GFP-tag. Plots of fluorescence versus time were fit with a single exponential function to determine the initial rate of proteolysis. Kinetic parameters were estimated using Eadie-Hofstee plots.
Proteolysis of GFP-tag in the presence of ClpXP and SspB was monitored by loss of GFP fluorescence in a continuous fluorometric assay. In the absence of cyclic peptide, GFP-tag was degraded with kinetic parameters kcat=[…], KM=0.74±0.04 μM. […] Likewise, no degradation was observed when ClpX or ClpP were omitted from the reaction.

ClpXP [4] = biological target: T1, ClpXP; experiment: ClpXP degradation of GFP-tag in the absence of SspB (Examples 1-2); assay type: biochemical, E. coli
Protocol: ClpXP Proteolysis: PD buffer contained 25 mM HEPES-KOH (pH 7.6), 5 mM KCl, 5 mM MgCl2, 0.032% NP-40, 5 mM ATP, and 10% glycerol. The ATP regenerating system consisted of 8 mM creatine phosphate and 0.16 mg/ml creatine kinase. Inhibition experiments were performed using a Hitachi F-2000 Fluorescence Spectrophotometer. The rate of GFP-ssrA degradation was monitored at 30° C. for 5 minutes by the loss of fluorescence (excitation 488 nm; emission 507 nm). Competition experiments with increasing concentrations of peptide were performed using GFP-ssrA (0.2 μM), ClpX6 (0.3 ArM), ClpP14 (0.8 μM), and SspB2 (0.3 μM) in PD buffer plus 200 mM KCl and ATP regenerating system. Curve fitting for the competitive inhibition assays were performed using the Scientist program (MicroMath Scientific Software, Inc.).
A priori, there are several steps in the degradation pathway that could be inhibited by the selected cyclic peptides: binding of the substrate-SspB complex to ClpXP, ATPase activity of ClpX, and hydrolysis of the peptide bond by ClpP. Molecules that block the binding of substrate to SspB should not be inhibitors of proteolysis by ClpXP, because ClpXP will degrade tmRNA-tagged substrates in the absence of SspB. To determine if the inhibitors act through SspB, the kinetic assays were repeated in the absence of this proteolytic adaptor.

ClpX = ClpX (Escherichia coli, UniProt P0A6H1); experiment: ClpX ATPase assay; assay type: biochemical, E. coli
Protocol: ATPase and peptidase assays: ClpX ATPase activity was measured by monitoring the increase in phosphate using a ternary hetero polyacid assay (Chen et al. 2003, Tsinghua Science and Technology 8: 422-427). 1 μM ClpX was incubated with or without 6 μM GFP-tag and varying concentrations of IXP1 in buffer P (4 mM ATP, 50 mM tris-HCl (pH 7.5), 100 mM NaCl, 100 mM KCl, 10 mM MgCl2, 2 mM DTT, and 10% glycerol) at 37° C. At each time point 10 μl was removed from the reaction, added to 265 μl 0.88 M nitric acid for 2 min, and 225 μl color developing solution (44.4 mM bismuth nitrate, 31.1 mM ammonium molybdate, 0.11% ascorbic acid) was added and the absorbance at 700 nm was determined. The rate of ATP hydrolysis was determined from plots of phosphate accumulation versus time.

[5] = test system: GFP-tag degradation by ClpXP; experiment: In vivo screen: GFP-tag reporter fluorescence in E. coli producing the cyclic peptide from a SICLOPPS plasmid, epifluorescence microscopy (Example 3); assay type: cell-based
Protocol: Screen for inhibitors of the tmRNA pathway: E. coli BW7786 cells containing the GFP-tag reporter and the SICLOPPS library were grown in LB broth with 30 μg/ml chloramphenicol, 100 μg/ml ampicillin, and 0.0002% arabinose at 37° C. to OD600=0.3. IPTG was added to a final concentration of 1 mM, and the culture was grown for 3 hours. Cells were sorted by fluorescence activated cell sorting (FACS) using a Beckman Coulter Elite cell sorter with Autoclone to isolate cells with GFP fluorescence, and selected cells were deposited on agar plates for clonal growth. Cells from each colony were grown in liquid culture as described above and examined by epifluorescence microscopy. The fluorescence intensity and the number of cells with fluorescence above background were scored using ImagePro software (MediaCybernetics). SICLOPPS plasmid DNA was prepared from selected clones and the region encoding the cyclic peptide was sequenced. Peptide sequences were obtained from conceptual translation of the DNA sequences.
Approximately 0.014% of the population had fluorescence over the background level, and 96 of these cells were isolated for clonal growth and characterization. To eliminate any clones that resulted from sorting errors or spurious accumulation of GFP, cells from each colony were cultured and examined by epifluorescence microscopy.

ClpXP [6] = biological target: T1, ClpXP; experiment: Peptidase activity of ClpXP against IXP1, reverse-phase HPLC; assay type: biochemical, E. coli; conditions: 60 min, no GFP-tag, HPLC peak area
Protocol: Peptidase activity against IXP1 was assayed by incubating 200 μM IXP1 with 0.1 μM ClpX6, 0.3 μM ClpP14 and the ATP regeneration system in buffer R at 37° C. Sample were taken after 0, 5, and 60 min, and
separated by reverse-phase HPLC using a Varian Microsorb-MV C18 column developed in a gradient from 0.1% trifluoroacetic acid in water to 0.1% trifluoroacetic acid in acetonitrile. UV absorbance at 280 nm was monitored and the peak corresponding to the IXP1 cyclic peptide was determined by comparison to reactions containing only cyclic IXP1 or linear IXP1. The loss of cyclic IXP1 was determined by integrating the area under the cyclic IXP1 peak.

ClpXP [7] = biological target: T1, ClpXP; experiment: In vitro proteolysis of GFP-tag by ClpXP without SspB (Example 3); assay type: biochemical, E. coli; conditions: no SspB
Protocol: as §1
In the in vitro and in vivo proteolysis reactions above, the proteolytic adaptor SspB binds GFP-tag and tethers it to ClpXP (Levchenko et al. 2000, Science 289: 2354-2356). In principle, IXP1 could act on the GFP-tag.cndot.ClpXP interaction or the SspB.cndot.ClpXP interaction. […]

C. crescentus [8] = assay type: cell-based, Caulobacter crescentus; remark: listed apart in the source
Protocol: Antibacterial activity assays: To measure the effects of peptides on bacterial growth, cultures of C. crescentus were diluted to OD600=0.001, peptide was added at various concentrations, the cultures were incubated at 30° C. for 14 h, and the MIC was determined as the lowest concentration of peptide that prevented growth. To determine the MBC, each culture was diluted 1:100 in PYE and 10 μl of the diluted culture was spread onto PYE agar plates, incubated at 30° C. overnight, and the number of colonies on each plate was counted. The MBC was assigned as the concentration of peptide that reduced the number of colonies by 99.9% compared to cultures with no inhibitor.

ClpP = ClpP (Escherichia coli, UniProt P0A6G7); experiment: ClpP peptidase assay with Suc-Leu-Tyr-AMC; assay type: biochemical, E. coli; conditions: Suc-Leu-Tyr-AMC substrate
Protocol: ClpP peptidase activity was measured using the fluorogenic peptide Suc-Leu-Tyr-AMC. 0.1 μM ClpP was incubated with 0.5-1.0 mM Suc-Leu-Tyr-AMC and varying concentrations of IXP1 in buffer P at 37° C. and monitoring the fluorescence of AMC (excitation at 353 nm, emission at 442 nm).

GFP-tag reporter = GFP-tag reporter fluorescence in cells expressing SGW+5 SICLOPPS clones, epifluorescence microscopy (Example 1); assay type: cell-based, E. coli
Description: Clonal populations are obtained by spotting the cells with high fluorescence on agar plates, and cells from each colony are screened by epi-fluorescence microscopy for fluorescence intensity. SICLOPPS plasmids from clones that pass the microscopy screen were isolated and sequenced to identify the cyclic peptide that is produced in that clone.
A SICLOPPS library was constructed in which the cyclic peptide contains three constant amino acids, SGW, followed by five random amino acids encoded by NNS codons. This library was introduced into cells containing the GFP-tag reporter, and the expression of the reporter and cyclic peptide were induced. Approximately 690,000 cells were sorted by FACS and the brightest 50 were isolated. These 50 clones were grown individually in fresh medium, the expression of reporter and cyclic peptide was induced, and the culture was observed by epifluorescence microscopy. Two clones produced cultures in which nearly 100% of the cells were highly fluorescent.

T1 sequence (P0A6G7 15-207): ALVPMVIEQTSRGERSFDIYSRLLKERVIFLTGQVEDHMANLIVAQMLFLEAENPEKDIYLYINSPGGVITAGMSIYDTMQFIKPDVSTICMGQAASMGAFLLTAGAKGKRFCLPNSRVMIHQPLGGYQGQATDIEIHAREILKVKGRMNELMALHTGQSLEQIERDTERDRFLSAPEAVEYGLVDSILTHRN
T1 sequence (P0A6H1 whole entry): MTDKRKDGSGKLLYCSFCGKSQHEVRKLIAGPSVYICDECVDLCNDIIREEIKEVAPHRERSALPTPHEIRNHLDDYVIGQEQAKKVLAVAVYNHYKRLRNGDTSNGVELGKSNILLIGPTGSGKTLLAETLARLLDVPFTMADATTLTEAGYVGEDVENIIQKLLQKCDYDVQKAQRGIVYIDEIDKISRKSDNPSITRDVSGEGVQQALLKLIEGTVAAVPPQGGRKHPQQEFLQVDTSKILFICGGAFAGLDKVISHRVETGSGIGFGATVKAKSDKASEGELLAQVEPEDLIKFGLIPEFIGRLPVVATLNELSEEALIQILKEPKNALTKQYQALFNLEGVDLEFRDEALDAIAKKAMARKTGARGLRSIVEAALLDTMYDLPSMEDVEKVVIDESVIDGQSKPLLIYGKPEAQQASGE
Chain of ClpX (P0A6H1 whole entry): as above
Chain of ClpP (P0A6G7 15-207): as the sequence (P0A6G7 15-207) above

Row | Compound | MIC (C. crescentus [1]) | effect on degradation of λO protein by ClpXP (ClpXP [2]) | mode of inhibition of GFP-tag degradation (ClpXP [3]) | inhibition of ClpXP proteolysis of GFP-tag in vitro (ClpXP [3]) | Ki (ClpXP [4]; GFP-tag degradation by ClpXP, no SspB) | inhibition of GFP-tag degradation by ClpXP in the absence of SspB (ClpXP [4]; no SspB) | KI in the absence of SspB, fold higher (ClpXP [4]; no SspB versus +SspB) | ClpX ATPase activity with GFP-tag included (ClpX; with GFP-tag) | rate of ClpX ATP hydrolysis (ClpX; without GFP-tag, up to 200 μM IXP1) | cell morphology ([5]; compared with filamentous ΔclpX strain) | GFP-tag fluorescence / inhibition in vivo ([5]; compared with ΔclpX strain) | amount of cyclic peptide after incubation with ClpXP (ClpXP [6]) | effect on GFP-tag degradation by ClpXP in the absence of SspB (ClpXP [7]) | MBC (C. crescentus [8]) | MIC (C. crescentus [8]) | decrease of ClpP peptidase activity (ClpP) | average fluorescent intensity relative to cultures expressing ICP1 or ICP2 (GFP-tag reporter) | cells highly fluorescent (GFP-tag reporter; induced culture)
1 | CC(C)C[C@@H]1NC(=O)[C@@H]2CCCN2C(=O)CNC(=O)[C@H](CCC(N)=O)NC(=O)[C@H](C(C)C)NC(=O)[C@H](CCCNC(=N)N)NC(=O)[C@H](Cc2c[nH]c3ccccc23)NC(=O)CNC(=O)[C@H](CO)NC1=O [ICP2, SGWRVQGPL] (HELM PEPTIDE1{G.P.L.S.G.W.R.V.Q}$PEPTIDE1,PEPTIDE1,1:R1-9:R2$$$V2.0) | 62.2 µM (≈ 61 µg/mL) | no effect | competitive inhibitors | inhibited | > 1000 µM | did not inhibit | at least 10 fold |  |  |  |  |  |  |  |  |  |  | 
2 | N=C(N)NCCC[C@@H]1NC(=O)CNC(=O)[C@H](Cc2ccc(O)cc2)NC(=O)[C@H](Cc2c[nH]c3ccccc23)NC(=O)CNC(=O)[C@H](CO)NC(=O)[C@H](Cc2c[nH]cn2)NC(=O)[C@H](CCCNC(=N)N)NC1=O [IXP1, SGWYGRRH] (HELM PEPTIDE1{G.R.R.H.S.G.W.Y}$PEPTIDE1,PEPTIDE1,1:R1-8:R2$$$V2.0) |  |  | uncompetitive inhibition | reduced the rate |  |  |  | no effect | not inhibited | slightly filamentous | indistinguishable from the ΔclpX strain; also recorded: fluorescent cells | did not change; also recorded: unchanged | still inhibited | 279 ± 23 µM (≈ 279 µg/mL) | 219 ± 42 µM (≈ 219 µg/mL) | less than 2% | more than twice | ~100%
